Measured values reported in PMC5983544, “Muscarinic M5 receptors modulate ethanol seeking in rats” (Neuropsychopharmacology, 2018).

Experiments:
rat M1 mAChR [1] = molecular target: T1, rat M1 mAChR (Rattus norvegicus, UniProt P08482); assay: [3H]NMS equilibrium binding in whole CHO-rM1 cells; settings: rM1, [3H]NMS binding
T1 construct: host or cells: FlpIn CHO cells (Invitrogen)
T1 sequence (P08482 1-460): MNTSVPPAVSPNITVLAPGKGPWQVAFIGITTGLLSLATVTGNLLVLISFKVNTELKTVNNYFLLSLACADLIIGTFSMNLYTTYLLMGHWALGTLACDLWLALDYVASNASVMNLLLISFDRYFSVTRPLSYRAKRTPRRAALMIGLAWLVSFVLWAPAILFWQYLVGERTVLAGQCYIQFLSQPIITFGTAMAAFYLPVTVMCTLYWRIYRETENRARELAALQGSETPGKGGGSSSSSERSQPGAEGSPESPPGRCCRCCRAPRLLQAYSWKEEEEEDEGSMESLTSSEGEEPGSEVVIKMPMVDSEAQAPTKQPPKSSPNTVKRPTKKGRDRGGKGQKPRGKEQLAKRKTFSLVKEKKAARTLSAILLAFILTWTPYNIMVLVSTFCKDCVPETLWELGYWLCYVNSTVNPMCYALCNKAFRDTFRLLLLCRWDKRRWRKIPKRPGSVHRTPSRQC
Description: Rat mAChR subtypes (rM1–rM5; Origene) and human cannabinoid 1 receptor (hCB1; ref. [24]) constructs were isogenically integrated into FlpIn CHO cells (Invitrogen) and cells were selected in the presence of […] hygromycin B at 37 °C, 5% CO2, as previously described for the human M1 mAChR [25]. All cells were sub-cultured and seeded as previously described for the CHO-hM5 cells.
[^3H]NMS equilibrium binding assays in CHO-rM1 to CHO-rM5 cells were performed as previously described for CHO-hM5 cells. For [^35S]GTPγS binding, CHO-rM2 and CHO-rM4 cell membranes were prepared as described in Supplementary information. Membrane [^35S]GTPγS binding was performed as described in ref [26]., except GDP and [^35S]GTPγS concentrations were 1 μM and 0.3 nM, respectively. [^3H](+)-pentazocine binding was performed as described in ref. [27].

rat M1 mAChR [2] = molecular target: T1, rat M1 mAChR; assay: ACh-stimulated IP accumulation (IP-One) in CHO-rM1 cells; type: cell-based
Description: (§1) The IP-One assay kit (Cisbio) was used for the direct quantitative measurement of inositol phosphate (IP) accumulation in CHO-rM1, CHO-rM3 or CHO-rM5 cells, as described previously. The CHO-hCB1 pERK1/2 assays were performed as described in ref [24].

rat M3 mAChR = molecular target: T2, rat M3 mAChR (Rattus norvegicus, UniProt P08483); assay: ACh-stimulated IP accumulation (IP-One) in CHO-rM3 cells; type: cell-based; settings: Fig. 2c
T2 construct: host or cells: FlpIn CHO cells (Invitrogen)
Description: as §1

[3] = Rat pharmacokinetics (intraperitoneal or oral dosing); type: in vivo
Description: ML375 pharmacokinetics after either intraperitoneal or oral dosing of rats was determined as described in Supplementary information.

[4] = system: ethanol-preferring (iP) rats; assay: Operant ethanol self-administration, oral dosing; type: in vivo, rat
Description: (§2) Male iP rats (n = 14) were trained to self-administer 10% (v/v) ethanol via lever presses under FR3 operant conditions for approximately 12 weeks, in the presence of a 1-s light conditioned stimulus (CS+) occurring when the ethanol solution was delivered and an olfactory cue (S+ cue; one drop of vanilla essence, placed directly below the ethanol-paired (active) lever), as previously described, followed by surgery and testing. […] Rats were then given 7 days of ethanol self-administration before receiving the alternate treatment in a counterbalanced manner. For full details refer to Supplementary material.

[5] = system: ethanol-preferring (iP) rats; assay: Locomotor activity; type: in vivo, rat; settings: 60 min
Description: Rats (n = 6) were habituated to the locomotor room for at least 3 h.

[6] = system: ethanol-preferring (iP) rats; assay: Cue-induced reinstatement of ethanol seeking; type: in vivo, rat; settings: 3 × 30 mg/kg p.o.
Description: A separate cohort of rats (n = 11) underwent 12 weeks of operant ethanol (10% v/v) self-administration followed by extinction training, where lever presses had no programmed consequences. Extinction occurred in the absence of CS+ and S+ cues. […] Subsequently, rats were tested for cue-induced reinstatement by re-introduction of the ethanol-paired CS+ and S+ cues, but in the absence of reward delivery. Rats were then re-extinguished and submitted to a second reinstatement session with the counterbalanced treatment.

[7] = system: ethanol-preferring (iP) rats; assay: Ethanol self-administration after bilateral microinjection into dorsolateral (DL) striatum; type: in vivo, rat; settings: intra-DL striatum, 105 pmol/hemisphere
Description: as §2
(§3) Microinjections were performed as previously described; for full details see Supplementary material.

[8] = system: ethanol-preferring (iP) rats; assay: Ethanol self-administration after bilateral microinjection into dorsomedial (DM) striatum; type: in vivo, rat; settings: intra-DM striatum, 105 pmol/hemisphere
Description: as §2, §3
There was a main effect of lever (F(1, 15) = 59.4, P < 0.0001) but no effect of treatment (F(1, 15) = 0.22, P = 0.65) (Fig. 5b).

hM5 mAChR = settings: same assay; cited from earlier work
[9] = single 30 mg/kg oral dose, plasma

T2 sequence (P08483 whole entry): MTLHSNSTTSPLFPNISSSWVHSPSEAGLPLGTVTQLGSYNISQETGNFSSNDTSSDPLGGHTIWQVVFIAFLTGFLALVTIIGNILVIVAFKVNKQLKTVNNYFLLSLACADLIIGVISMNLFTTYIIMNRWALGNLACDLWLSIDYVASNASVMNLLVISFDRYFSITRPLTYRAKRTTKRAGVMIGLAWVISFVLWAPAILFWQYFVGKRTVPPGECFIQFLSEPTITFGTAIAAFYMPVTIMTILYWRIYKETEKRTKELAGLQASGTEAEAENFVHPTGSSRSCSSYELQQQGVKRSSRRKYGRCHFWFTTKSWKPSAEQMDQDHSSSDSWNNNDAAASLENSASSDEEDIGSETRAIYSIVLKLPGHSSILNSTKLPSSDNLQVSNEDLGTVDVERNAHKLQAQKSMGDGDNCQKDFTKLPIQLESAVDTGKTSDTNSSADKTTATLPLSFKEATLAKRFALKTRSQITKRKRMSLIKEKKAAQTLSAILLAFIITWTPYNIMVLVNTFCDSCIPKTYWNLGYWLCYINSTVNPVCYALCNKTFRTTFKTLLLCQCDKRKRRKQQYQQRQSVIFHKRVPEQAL

O=C(c1ccc(F)c(F)c1)N1CCN2C(=O)c3ccccc3[C@@]12c1ccc(Cl)cc1 [ML375, (S)-9b-(4-chlorophenyl)-1-(3,4-difluorobenzoyl)-2,3-dihydro-1H-imidazo[2,1-a]isoi ndol-5(9bH)-one]
effect on ACh affinity (rat M1 mAChR [1]): no significant effects | effect on ACh potency (rat M1 mAChR [2]): no significant effects | activity on ACh function at rM3 (rat M3 mAChR): weak activity | clearance ([3]; 20 mg/kg i.p., 24 h profile): low clearance | terminal half-life ([3]; 20 mg/kg i.p., 24 h profile): long terminal half-life | Kp at 24 h ([3]; brain and plasma, ip, 20 mg/kg i.p., 24 h timepoint, read-out: brain-to-plasma ratio): 3 ± 0.7 | Cmax [3, 9]: 4.7 ± 0.7 µM | Tmax [3, 9]: 7 h | latency to first water response vs vehicle ([4]; 30 mg/kg p.o. at 3 h, 11 h and 27 h prior to testing, P = 0.037): extends the latency | ethanol responding vs vehicle ([4]; 30 mg/kg p.o. at 27 h, 11 h and 3 h prior to test, 10% ethanol, FR3, P = 0.0015): significantly reduced ethanol responding | responding for water vs vehicle ([4]; 30 mg/kg p.o. at 27 h, 11 h and 3 h prior to test, P = 0.98): no difference | latency to first ethanol reward vs vehicle ([4]; 30 mg/kg p.o., P = 0.73): no difference | locomotor activity vs vehicle ([5]; 30 mg/kg p.o., P = 0.53): no difference | locomotor activity vs vehicle ([5]; 56.6 mg/kg p.o., P = 0.016): did reduce locomotor activity | cue-induced reinstatement of ethanol seeking (active lever) vs vehicle ([6]; P = 0.015): significantly attenuated | responding for the previously water-paired lever vs vehicle ([6]; P > 0.99): no differences | responding for ethanol vs vehicle ([7]; P = 0.011): significantly reduced responding for ethanol | responding for water vs vehicle ([7]; P > 0.99): no difference | ethanol responding vs vehicle [8]: did not affect ethanol responding | binding affinity pKB (hM5 mAChR): 6.87 | cooperativity with ACh binding, Log α (hM5 mAChR): −1.37
